Data on five molecules can be found in patent EP4772514A1, “MACROCYCLIC COMPOUNDS, PREPARATION METHOD THEREFOR, AND USE THEREOF” (Genfleet Therapeutics (Shanghai) Inc., priority 2023, dated 2025).

Each structure is given as a SMILES string. Where two headings read alike, the source gives them in different places.

One test deals with NCI-H441 cells. The test is described as follows: 3D cell proliferation assay (CellTiter Glo-3D) in NCI-H441 cells. Format: cell-based. As to conditions: NCI-H441, human lung cancer cell strain, KRAS G12V mutation, 3D culture, 2% FBS, 5 days, read-out: H441 AP IC50. An excerpt:
MIA PaCa-2 cells were purchased from ATCC, Cat. No. CRL-1420; AsPC-1 cells were purchased from ATCC, Cat. No. CRL-1682; NCI-H441 cells were purchased from ATCC, Cat. No. HTB-174; NCI-H1975 cells were purchased from ATCC, Cat. No. CRL-5908; DMEM medium was purchased from Gibco, Cat. No. 11995-065; RPMI-1640 medium was purchased from Gibco, Cat. No. 11875-093; FBS was purchased from Gibco, Cat. No. 10099-141C; penicillin/streptomycin double-antibiotic solution (PS) was purchased from Gibco, Cat. No. 15140-122; Horse serum was purchased from Gibco, Cat. No. 16050130; trypsin (containing EDTA) was purchased from Gibco, Cat. No. 25200-072; DMSO was purchased from VWRAMRESCO, Cat. No. 0231-500ML; 384-well cell culture plates were purchased from Corning, Cat. No. 3830; white-bottomed, opaque 384-well assay plates were purchased from Corning, Cat. No. 3570; CellTiter Glo-3D kit was purchased from Promega, Cat. No. G9683; cell counter was purchased from CHEMOMETEC, model: NC-200; microplate reader was purchased from PerkinElmer, model: EnVision.
MIA PaCa-2, a human pancreatic cancer cell strain endogenously containing a KRAS^G12Cmutation, was cultured in a complete medium containing DMEM + 10% FBS + 2.5% Horse serum + 1% PS. AsPC-1, a human pancreatic cancer cell strain endogenously containing a KRAS^G12D mutation, was cultured in a complete medium containing RPMI-1640 + 10% FBS + 1% PS. NCI-H441 cells, a human lung cancer cell strain endogenously containing a KRAS^G12V mutation, were cultured in a complete medium containing RPMI-1640 + 10% FBS + 1% PS. NCI-H1975, a KRAS wild-type human lung cancer cell strain whose cell proliferation […], was cultured in a complete medium containing RPMI-1640 + 10% FBS + 1% PS.
The cells were digested with trypsin (containing EDTA), collected in their respective low-serum complete media containing 2% FBS (for MIA Paca-2 cell culture: DMEM + 2% FBS + 0.5% Horse serum + 1% PS), and counted. After the cell density was adjusted as required, MIA PaCa-2 cells (200 cells/well), AsPC-1 cells (800 cells/well), NCI-H441 cells (800 cells/well), or NCI-H1975 cells (400 cells/well) were seeded into a 384-well cell culture plate, with the volume of the medium in each well being 45 µL. The cell culture plate was incubated in an incubator at 37 °C with 5% CO2 overnight. A series of 3.16-fold gradient dilutions of a 1000× compound stock solution were prepared with DMSO, and then diluted 100-fold with the complete medium containing 2% FBS described above to give 10× compound stock solutions. On the day after cell seeding, 5 µL of the 10× compound stock solution was added to each cell culture well. As a result, the final concentration of the compound in the cell culture well became 1×, and the DMSO content in the well was 0.1%. In addition to the compound-treated wells described above, cell-containing DMSO control wells (with 5 µL of the complete medium containing 1% DMSO added to each well) and cell-free medium control wells (containing 50 µL of the complete medium with 2% FBS) were also set. The culture plate was incubated in an incubator at 37 °C with 5% CO2 for another 5 days, and then 30 µL of CellTiter-Glo working solution was added to each well. The mixture was well mixed, incubated for 30 min, left to stand at room temperature for 30 min, and then transferred to a white-bottomed, opaque 384-well assay plate at 40 µL/well. The chemiluminescence values (RLU) were measured using a microplate reader, and the cell proliferation inhibition rate for each well was calculated: IR(%) = (RLUDMSO - RLUcompound)/(RLUDMSO - RLUblank) × 100%, where RLUDMSO is the average RLU signal value from the DMSO control well samples, RLUblank is the average RLU signal value from the medium control well samples, and RLUcompound is the RLU signal value from the compound-treated well samples. […]
A general note: In ATP-based viability assays light output follows the ATP content of the culture.

A further test concerns p-ERK. The test is described as follows: Cell p-ERK assay (HTRF, Advance ERK phospho-T202/Y204 kit) in NCI-H441 cells. The following applies: NCI-H441, human non-small cell lung cancer cell strain, KRAS G12V mutation, 3 h compound incubation. It counts as cell-based. The protocol: AsPC-1 cells were purchased from ATCC, Cat. No. CRL-1682; NCI-H441 cells were purchased from ATCC, Cat. No. HTB-174; RPMI-1640 medium was purchased from Gibco, Cat. No. 11875-093; FBS was purchased from Gibco, Cat. No. 10099-141C; penicillin/streptomycin double-antibiotic solution (PS) was purchased from Gibco, Cat. No. 15140-122; trypsin (containing EDTA) was purchased from Gibco, Cat. No. 25200-072; DMSO was purchased from VWRAMRESCO, Cat. No. 0231-500ML; 96-well cell culture plates were purchased from Corning, Cat. No. 3599; white-bottomed, opaque 96-well plates were purchased from Cisbio, Cat. No. 66PL96025; Advance ERK phospho-T202/Y204 kit was purchased from Cisbio, Cat. No. 64AERPEH; cell counter was purchased from CHEMOMETEC, model: NC-200; microplate reader was purchased from PerkinElmer, model: EnVision.
AsPC-1, a human pancreatic cancer cell strain endogenously containing a KRAS^G12D mutation, was cultured in a complete medium containing RPMI-1640 + 10% FBS + 1% PS. NCI-H441, a human non-small cell lung cancer cell strain endogenously containing a KRAS^G12V mutation, was cultured in a complete medium containing RPMI-1640 + 10% FBS + 1% PS.
The cells were digested with trypsin (containing EDTA), collected in their corresponding complete media, and counted. The density of the cell suspensions was adjusted with their corresponding complete media, and AsPC-1 cells (10000 cells/well) or NCI-H441 cells (20000 cells/well) were seeded into a 96-well cell culture plate, with the volume of the medium in each well being 80 µL. The cell culture plate was incubated in an incubator at 37 °C with 5% CO2 overnight. A series of 3.16-fold gradient dilutions of a 1000× compound stock solution were prepared with DMSO, and then diluted 200-fold with the complete medium described above to give 5× compound stock solutions. On the day after cell seeding, 20 µL of the 5× compound stock solution was added to each cell culture well. As a result, the final concentration of the compound in the cell culture well became 1×, and the DMSO content in the well was 0.1%. In addition to the compound-treated wells described above, cell-containing DMSO control wells were also set. A complete medium containing 0.5% DMSO was added at 20 µL/well. After the mixture was well mixed, the culture plate was incubated in the incubator at 37 °C with 5% CO2 for another 3 h. The medium was then removed from the culture wells, and 50 µL of cell lysis buffer (from Advance ERK phospho-T202/Y204 kit) was added to each well. The mixture was well mixed, incubated for 30 min, and then transferred to a white-bottomed, opaque 96-well assay plate at 16 µL/well, and separately, 16 µL of cell lysis buffer was added to additional wells (serving as blank wells) in the assay plate. After the transfer was completed, 4 µL of p-ERK HTRF antibody mixture (from Advance ERK phospho-T202/Y204 kit) was added to each well of the assay plate, followed by a 4-hour incubation. The HTRF signal values (RLU) were then measured using a microplate reader, and the inhibition rate of the compound against p-ERK levels was calculated as follows: IR(%) = (RLUDMSO - RLUcompound)/(RLUDMSO - RLUblank) × 100%, where RLUDMSO is the average HTRF signal value from the DMSO control well samples, RLU is the average HTRF signal value from the blank well samples, and RLUcompound is the HTRF signal value from the compound-treated well samples. Using an XLfit software, the IR(%) values were plotted against the logarithm of the compound concentrations, and the dose-response curves were fitted using the four-parameter method to calculate the IC50 values.
(In general: TR-FRET usually uses a lanthanide donor and a delayed reading to cut background.)

The IC50 is the concentration that gives 50% inhibition. Consider `CCn1nc2c(c1-c1cc(C#CCN3CCS(=O)(=O)CC3)cnc1[C@H](C)OC)CC(C)(C)COC(=O)[C@@H]1CCCN(N1)C(=O)[C@@H](NC(=O)[C@@H](OCc1ccccc1)C(C)C)Cc1nc(cs1)/C=C/2` (atropisomer, axis not shown; (Ra)) [Compound Z46, (2S)-2-(benzyloxy)-N-((4^2Z,8^3S,2E,6S)-1^5-(Ra)-(5-(3-(1,1-dioxidothiomorpholino)prop-1-yn-1-yl)-2-((S)-1-methoxyethyl)pyridin-3-yl)-1^1-ethyl-12,12-dimethyl-7,9-dioxo-8^1,8^2,8^3,8^4,8^5,8^6-hexahydro-1^1H-10-oxa-4(4,2)-thiazola-8(1,3)-pyridazina-1(3,4)-pyrrolacyclotridecaphan-2-en-6-yl)-3-methylbutanamide], for which the IC50 in the test with NCI-H441 cells (Homo sapiens, NCI-H441, 120 h) was found to be 176 nM; with p-ERK (Homo sapiens, NCI-H441, 3 h), 168 nM.

With `CCn1nc2c(c1-c1cc(C#CCN3CCS(=O)(=O)CC3)cnc1[C@H](C)OC)CC(C)(C)COC(=O)[C@@H]1CCCN(N1)C(=O)[C@@H](NC(=O)[C@@H]1CCCN1Cc1ccccc1)Cc1nc(cs1)/C=C/2` (atropisomer, axis not shown; (Ra)) [Compound Z48, (2S)-1-benzyl-N-((4^2Z,8^3S,2E,6S)-(Ra)-1^5-(5-(3-(1,1-dioxothiomorpholine)-1-prop-1-yn-1-yl)-2-((S)-1-methoxyethyl)pyridin-3-yl)-1^1-ethyl-12,12-dimethyl-7,9-dioxo-8^1,8^2,8^3,8^4,8^5,8^6-hexahydro-1^1H-10-oxa-4(4,2)-thiazola-8(1,3)-pyridazina-1(3,4)-pyrrolacyclotridecaphan-2-en-6-yl)pyrrolidine-2-carboxamide], the IC50 in the test with NCI-H441 cells (120 h) came to 123 nM; in the test with p-ERK, 78.6 nM.

Consider `CCn1nc2c(c1-c1cc(C#CCN3CCS(=O)(=O)CC3)cnc1[C@H](C)OC)CC(C)(C)COC(=O)[C@@H]1CCCN(N1)C(=O)[C@@H](NC(=O)[C@H](C(C)C)N(C)c1ccccc1)Cc1nc(cs1)/C=C/2` (atropisomer, axis not shown; (Ra)) [Compound Z51, (2S)-N-((4^2Z,8^3S,2E,6S)-(Ra)-1^5-(5-(3-(1,1-dioxidothiomorpholine)prop-1-yn-1-yl)-2-((S)-1-methoxyethyl)pyridin-3-yl)-1^1-ethyl-12,12-dimethyl-7,9-dioxo-8^1,8^2,8^3,8^4,8^5,8^6-hexahydro-1^1H-10-oxa-4(4,2)-thiazola-8(1,3)-pyridazina-1(3,4)-pyrazolecyclotridec-2-en-6-yl)-3-methyl-2-(methyl(phenyl)amino)butanamide], for which the IC50 in the test with NCI-H441 cells (Homo sapiens, NCI-H441, 120 h) came out at 3.46 nM; in the test with p-ERK (Homo sapiens, NCI-H441, 3 h), 3.02 nM.

For `CCn1nc2c(c1-c1cc(C#CCN3CCS(=O)(=O)CC3)cnc1[C@H](C)OC)CC(C)(C)COC(=O)[C@@H]1CCCN(N1)C(=O)[C@@H](NC(=O)[C@@H](NC(=O)OC(C)(C)C)C(C)C)Cc1nc(cs1)/C=C/2` (atropisomer, axis not shown; (Ra)) [Compound Z53], the IC50 is 115 nM with NCI-H441 cells (Homo sapiens, NCI-H441, 120 h) and 182 nM in the test with p-ERK (Homo sapiens, NCI-H441, 3 h).

As to `CCn1nc2c(c1-c1cc(C#CCN3CCS(=O)(=O)CC3)cnc1[C@H](C)OC)CC(C)(C)COC(=O)[C@@H]1CCCN(N1)C(=O)[C@@H](NC(=O)[C@@H](NC)C(C)C)Cc1nc(cs1)/C=C/2` (atropisomer, axis not shown; (Ra)) [Compound Z56, (2S)-N-((4^2Z,8^3S,2E,6S)-1^5-(Ra)-(5-(3-(1,1-dioxidothiomorpholino)prop-1-yn-1-yl)-2-((S)-1-methoxyethyl)pyridin-3-yl)-1^1-ethyl-12,12-dimethyl-7,9-dioxo-8^1,8^2,8^3,8^4,8^5,8^6-hexahydro-1^1H-10-oxa-4(4,2)-thiazola-8(1,3)-pyridazina-1(3,4)-pyrrolacyclotridecaphan-2-en-6-yl)-3-methyl-2-(methylamino)butanamide], the IC50 in the test on NCI-H441 cells (Homo sapiens, NCI-H441, 120 h) stood at 196 nM; in the test with p-ERK (Homo sapiens, NCI-H441, 3 h), 126 nM.
